# Data published in publication PMC12736141, “New Quinazolin-4(3H)-one Derivatives as Potential Antitumoral Compounds: Synthesis, In Vitro Cytotoxicity Against the HepG2 Cell Line, and In Silico VEGFR-2 Targeting-Based Studies” (Molecules, 2025).
# Key:
# [1] = In vitro lipophilicity by RP-TLC; format: physicochemical; details: for PC2 / PC1: PCA score on RM values; for PC1: lower value = more lipophilic; for RM / Rf / mRM / RM0 / b / lipophilicity ranking (in words): RP-TLC; for mRM: arithmetic mean of RM values; for RM0: extrapolation of RM to 0% organic modifier; for b: slope of the line RM = f(c); for lipophilicity ranking (in words): within series 5a–c
# Method: The chromatographic performance of compounds 5a–c was investigated by reverse-phase thin-layer chromatography (RP-TLC). Standardized Silica gel 60 RP-18 F254S chromatographic plates (20 × 10 cm, Merck, Darmstadt, Germany) were used as the stationary phase, and an i-propanol–water mixture, in volumetric proportions ranging from 40% to 60% (v/v) i-propanol, was used as the mobile phase. The variance between two successive elution mixtures was 5%.
# Solutions containing 1 mg/mL of compounds 5a–c were prepared in dimethylsulfoxide (DMSO). A volume equal to 2 μL of each sample was manually applied using chromatographic capillary micropipettes, at a distance of 10 mm from the lower side of the plates and 10 mm from their lateral sides. The gap between two successive spots was 10 mm.
# The development process was carried out at room temperature using a chromatographic chamber pre-saturated for 30 min with mobile-phase vapors. The migration distance of the mobile phase was 80 mm for all concentrations used, and it was determined manually by calculating the retention factor Rf; thus, Rf = migration distance of the compound/migration distance of the mobile phase. Rf values were calculated for each tested compound at all five concentrations of the mobile phase.
# The spots were visualized under UV light at a wavelength of 254 nm.
# Starting from the Rf values determined by RP-TLC, a series of lipophilicity parameters was calculated. Therefore, based on the Bate-Smith and Westall equation, the logarithmic RM values were obtained:RM = log [1/Rf−1](2)
# Based on the linear relationship between the RM value and the concentration of the organic solvent in the mobile phase [c], using the linear regression equation and the Soczewinski–Wachtmeister model (where b = slope of the line and c = concentration of organic modifier), the values of another lipophilicity parameter, RM0, were determined by extrapolating the RM values to 0% organic modifier:RM = RM0 + b[c](3)
# The arithmetic mean of the lipophilicity parameter RM values, corresponding to a series of concentrations of the organic modifier in the mobile phase, was determined. Therefore, the mRM lipophilicity parameter was obtained.
# Applying principal component analysis (PCA, XL-STAT) to the lipophilicity parameter RM, new lipophilicity parameters represented by the principal components (PCs) were obtained.
# Starting from the experimentally determined Rf values, the RM logarithmic values were calculated. Consequently, the presence of minor errors in determining the Rf values can generate errors in calculating the RM values. By analyzing the principal components, the errors in estimating the RM0 values are eliminated through extrapolation, thereby providing more precise results.
# [2] = test system: human foreskin fibroblasts (BJ); test: MTT cytotoxicity assay on BJ cells; format: cell-based; details: 48 h; for cytotoxicity on BJ cell line (in words) / IC50: BJ cells; for IC50: Homo sapiens, MTT
# Method: (§1) Compounds 5a–c were dissolved in dimethylsulfoxide (DMSO) at an initial concentration of 10 mM, which was diluted 10 times with the characteristic medium and placed on plates at final concentrations ranging from 12.5 to 150 μM. The cells were seeded on plates of 96 wells at a density of 1 × 10^4 cells per well and incubated for 48 h. The culture medium was removed, and then 100 µL MTT (3-(4,5-dimethylthiazol-2-yl)-2,5-diphenyltetrazolium bromide) was added for 1 h. After that, it was removed, and 150 µL of pure dimethylsulfoxide (DMSO) was added. The samples were read using an ELISA Reader (BioTek, Winooski, VT, USA) at 570 nm. […] All determinations were made in triplicate.
# (§2) The half-maximal inhibitory concentration (IC50) values were calculated to evaluate the potency of compounds 5a–c by fitting the investigational data with a 4-parameter logistic curve to obtain the dose-effect curves. The experimental IC50 results are expressed as mean values ± standard deviation (SD) of the three biological replicates.
# (§3) Two-way analysis of variance (ANOVA) with a post hoc Bonferroni test was used to statistically examine the relative cell viability (%), compared to the negative control (NC), which was 100%. Data were analyzed using the […] software (GraphPad Prism 8.0.2. Software, La Jolla, CA, USA). In terms of statistical analysis, the results were considered different at values of p < 0.05 or p < 0.001.
# [3] = test system: human hepatocellular carcinoma (HepG2); test: MTT cytotoxicity assay on HepG2 cells; format: cell-based; details: for IC50: Homo sapiens, HepG2 cells, MTT; for IC50 / Selectivity Index (SI): 48 h; for Selectivity Index (SI): SI = IC50 BJ/IC50 HepG2
# Method: as §1, §2, §3
# The selectivity index (SI) was used as a parameter to determine how many times more cytotoxic the investigated compounds were by exposing them to normal and cancer cells. It was calculated using the IC50 value ratio between the BJ cell line and the HepG2 cell line, both obtained from ATCC (Manassas, VA, USA). Results that are greater than 2 are considered suitable, as reported in the literature.
# [4] = In vitro lipophilicity by RP-HPLC; format: physicochemical; details: logarithm of the capacity factor
# Method: The chromatographic behavior of compounds 5a–c was also examined by high-performance liquid chromatography coupled with mass spectrometry (HPLC-MS). The analyses were conducted using an Agilent 1100 series HPLC system (binary pump, autosampler, thermostat, UV detector, Agilent Technologies, USA) coupled to a Bruker Ion Trap SL system (Bruker Daltonics GmbH). Chromatographic separation was completed using a Zorbax SB-C18 column (50 mm × 2.1 mm i.d., 3.5 μm, Agilent Technologies). The mobile phase consisted of a mixture of water with 0.1% (v/v) acetic acid and acetonitrile. The elution gradient started at 15% acetonitrile and increased to 95% within 5 min. The flow rate was 0.6 mL/min, and the thermostat was set at 45 °C. UV detection was performed at 242 nm. Based on the retention times obtained, the capacity factor k was calculated using formula […], where tR = retention time of the compound and t0 = retention time of the solvent:k = (tR − t0)/t0,(4)
# The logarithm of the capacity factor (log k) was used to estimate the lipophilicity of the compounds [71]. The RP-HPLC method has multiple advantages, including low sample requirements, good accuracy of determinations, fast analysis, and high reproducibility.
# [5] = Isopropanol–Water 40:60 (v:v %)
# [6] = Isopropanol–Water 45:55 (v:v %)
# [7] = Isopropanol–Water 50:50 (v:v %)
# [8] = Isopropanol–Water 55:45 (v:v %)
# [9] = Isopropanol–Water 60:40 (v:v %)
PC2 [1],PC1 [1],"RM [1, 5]","Rf [1, 5]","RM [1, 6]","Rf [1, 6]","RM [1, 7]","Rf [1, 7]","RM [1, 8]","Rf [1, 8]","RM [1, 9]","Rf [1, 9]",mRM [1],RM0 [1],b [1],log k [4],lipophilicity ranking (in words) [1],SMILES,cytotoxicity on BJ cell line (in words) [2],IC50 [2],IC50 [3],other results
−0.09,0.64,0.12,0.43,0.03,0.48,−0.08,0.55,−0.28,0.66,−0.60,0.8,−0.16,−0.03,1.60,0.93,,"C=CCn1c(SCC(=O)c2ccc(O)c(C(N)=O)c2)nc2ccccc2c1=O [5a, 5-(2-((3-allyl-4-oxo-3,4-dihydroquinazolin-2-yl)thio)acetyl)-2-hydroxybenzamide]",less cytotoxic or non-cytotoxic,> 100 µM,> 50 µM,
0.41,−2.01,0.36,0.30,0.23,0.37,0.06,0.46,−0.14,0.58,−0.41,0.72,0.02,−0.03,1.95,0.99,The most lipophilic compound,"NC(=O)c1cc(C(=O)CSc2nc3ccccc3c(=O)n2Cc2ccccc2)ccc1O [5b, 5-(2-((3-benzyl-4-oxo-3,4-dihydroquinazolin-2-yl)thio)acetyl)-2-hydroxybenzamide]",moderate cytotoxicity,26.6 ± 1.07 µM,24.87 ± 0.19 µM,"reduction of viability values ([2]; BJ, concentrations higher than 50 and 100 µM): more than 35%; decrease of cell viability ([2]; BJ, concentrations over 25 µM): more than 50%; Selectivity Index (SI) [3]: 1.06"
−0.31,1.37,0.05,0.47,−0.01,0.51,−0.14,0.58,−0.32,0.68,−0.62,0.81,−0.21,−0.03,1.46,0.91,The least lipophilic compound,"CCn1c(SCC(=O)c2ccc(O)c(C(N)=O)c2)nc2ccccc2c1=O [5c, 5-(2-((3-ethyl-4-oxo-3,4-dihydroquinazolin-2-yl)thio)acetyl)-2-hydroxybenzamide]",moderate cytotoxicity,34.5 ± 1.09 µM,25.46 ± 0.2 µM,"relative cell viability result (in words) ([2]; BJ, over 37.5 µM): significantly unfavorable; Selectivity Index (SI) [3]: 1.35; reduction in cell viability (in words) ([3]; HepG2, 48 h, over 37.5 µM): important reduction in cell viability"
,,,,,,,,,,,,,,,,,"CNC(=O)c1cc(Oc2ccc(NC(=O)Nc3ccc(Cl)c(C(F)(F)F)c3)cc2)ccn1 [Sorafenib, reference compound]",,5.11 ± 0.16 µM,4.87 ± 0.19 µM,"cell viability level ([3]; HepG2, 48 h, concentrations exceeding 5 µM): below 50%"
